How the values were obtained:
[1] = target: Sucrase-isomaltase, intestinal (Rattus norvegicus) (UniProt P23739); assay: Inhibition of rat small intestinal sucrase using sucrose as substrate assessed as amount of liberated glucose at 1 mM after 30 mins by glucose oxidase method
[2] = target: Sucrase-isomaltase, intestinal (Rattus norvegicus) (UniProt P23739); conditions: 0.02 mM
Description: Inhibition of rat small intestinal sucrase using sucrose as substrate assessed as amount of liberated glucose at 0.02 mM after 30 mins by glucose oxidase method

Chain of Sucrase-isomaltase, intestinal (Rattus norvegicus) (P23739 1-1013 limits assumed): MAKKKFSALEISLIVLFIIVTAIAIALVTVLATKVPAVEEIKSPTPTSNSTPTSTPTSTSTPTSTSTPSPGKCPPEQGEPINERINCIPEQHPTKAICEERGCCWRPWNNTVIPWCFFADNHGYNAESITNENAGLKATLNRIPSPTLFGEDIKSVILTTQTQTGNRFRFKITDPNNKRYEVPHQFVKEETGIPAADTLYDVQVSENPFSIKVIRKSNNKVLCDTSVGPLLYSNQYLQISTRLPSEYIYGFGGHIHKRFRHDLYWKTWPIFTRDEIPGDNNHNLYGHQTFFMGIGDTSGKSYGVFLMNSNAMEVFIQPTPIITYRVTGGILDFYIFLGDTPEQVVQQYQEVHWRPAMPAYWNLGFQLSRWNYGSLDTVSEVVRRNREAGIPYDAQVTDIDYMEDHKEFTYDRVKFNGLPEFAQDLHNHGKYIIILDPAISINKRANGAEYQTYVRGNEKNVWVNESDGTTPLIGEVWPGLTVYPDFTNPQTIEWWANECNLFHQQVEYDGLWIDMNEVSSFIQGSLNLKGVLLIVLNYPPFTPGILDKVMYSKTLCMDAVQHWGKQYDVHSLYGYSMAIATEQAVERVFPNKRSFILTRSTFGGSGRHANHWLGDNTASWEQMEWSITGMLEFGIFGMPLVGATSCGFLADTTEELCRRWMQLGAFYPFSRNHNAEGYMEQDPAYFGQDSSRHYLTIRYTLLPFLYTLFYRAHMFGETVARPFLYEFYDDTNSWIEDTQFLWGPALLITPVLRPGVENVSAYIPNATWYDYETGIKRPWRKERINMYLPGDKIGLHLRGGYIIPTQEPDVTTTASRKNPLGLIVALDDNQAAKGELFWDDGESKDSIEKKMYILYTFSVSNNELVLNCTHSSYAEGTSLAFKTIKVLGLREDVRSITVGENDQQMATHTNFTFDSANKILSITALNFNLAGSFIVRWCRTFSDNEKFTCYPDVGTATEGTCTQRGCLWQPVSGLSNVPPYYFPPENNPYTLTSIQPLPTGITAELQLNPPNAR
Chain of Sucrase-isomaltase, intestinal (Rattus norvegicus) (P23739 1014-1841 limits assumed): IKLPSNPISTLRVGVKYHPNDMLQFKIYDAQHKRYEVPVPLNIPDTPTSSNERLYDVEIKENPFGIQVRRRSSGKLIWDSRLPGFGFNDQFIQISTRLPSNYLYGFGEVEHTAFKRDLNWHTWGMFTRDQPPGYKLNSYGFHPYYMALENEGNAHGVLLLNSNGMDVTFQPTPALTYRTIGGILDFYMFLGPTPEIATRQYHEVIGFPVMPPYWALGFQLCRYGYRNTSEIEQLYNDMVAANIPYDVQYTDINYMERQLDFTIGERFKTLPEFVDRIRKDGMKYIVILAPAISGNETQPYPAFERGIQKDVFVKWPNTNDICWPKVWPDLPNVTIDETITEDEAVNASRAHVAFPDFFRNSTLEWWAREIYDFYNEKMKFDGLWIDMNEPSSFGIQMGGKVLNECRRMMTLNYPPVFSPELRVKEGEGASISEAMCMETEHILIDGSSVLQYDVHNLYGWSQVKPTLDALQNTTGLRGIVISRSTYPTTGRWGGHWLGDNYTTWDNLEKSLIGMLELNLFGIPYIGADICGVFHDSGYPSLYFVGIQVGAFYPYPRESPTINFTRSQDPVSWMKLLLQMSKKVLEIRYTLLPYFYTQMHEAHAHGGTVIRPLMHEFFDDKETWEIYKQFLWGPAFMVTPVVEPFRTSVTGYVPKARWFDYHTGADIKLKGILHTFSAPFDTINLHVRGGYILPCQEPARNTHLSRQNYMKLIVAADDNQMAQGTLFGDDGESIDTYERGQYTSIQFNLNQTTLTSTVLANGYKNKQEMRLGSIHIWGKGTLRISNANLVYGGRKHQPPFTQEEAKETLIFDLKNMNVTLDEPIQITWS

Row | SMILES | inhibition [1] [%] | inhibition [2] [%]
1 | CC1=CC(=O)CC(C)(C)C1/C=C/[C@@H](C)O[C@@H]1O[C@H](CO[C@@H]2OC[C@](O)(CO)[C@H]2O)[C@@H](O)[C@H](O)[C@H]1O (stereo not given in full) | 13.6 | 
2 | COc1cc(C[C@H]2CO[C@H](c3cc(OC)c(O)c(OC)c3)[C@H]2CO[C@@H]2O[C@H](CO)[C@@H](O)[C@H](O)[C@H]2O)cc(OC)c1O | 81.6 | 
3 | CC1=CC(=O)CC(C)(C)[C@@]1(O)/C=C/[C@@H](C)O[C@@H]1O[C@H](CO)[C@@H](O)[C@H](O)[C@H]1O | 23.7 | 
4 | COc1cc([C@H]2c3c(cc(OC)c(O)c3OC)C[C@H](CO)[C@H]2CO[C@@H]2O[C@H](CO)[C@@H](O)[C@H](O)[C@H]2O)cc(OC)c1O | 10.8 | 
5 | CC1=CC(=O)CC(C)(C)[C@@]1(O)/C=C/[C@@H](C)O[C@@H]1O[C@H](CO[C@@H]2OC[C@](O)(CO)[C@H]2O)[C@@H](O)[C@H](O)[C@H]1O | 35.1 | 
6 | COc1cc([C@H]2c3c(cc(OC)c(O)c3OC)C[C@H](CO)[C@H]2CO)cc(OC)c1O | 57.5 | 
7 | COc1cc(/C=C/CO)cc(OC)c1O[C@H]1O[C@H](CO)[C@@H](O)[C@H](O)[C@H]1O | 14.6 | 
8 | C[C@](O)(CC(=O)O)CC(=O)O[C@@H]1[C@@H](O)[C@H](OCc2ccccc2)O[C@H](CO)[C@H]1O | 88.4 | 
9 | CC(=O)OC[C@H]1O[C@@H](O[C@H](C)/C=C/[C@@]2(O)C(C)=CC(=O)CC2(C)C)[C@H](O)[C@@H](O)[C@@H]1O | 29.8 | 
10 | N#C[C@H](O[C@@H]1O[C@H](CO[C@@H]2O[C@H](CO)[C@@H](O)[C@H](O)[C@H]2O)[C@@H](O)[C@H](O)[C@H]1O)c1ccccc1 | 50.4 | 
11 | COc1cc([C@@H]2c3c(cc(OC)c(O)c3OC)C[C@H](CO)[C@H]2CO[C@@H]2O[C@H](CO)[C@@H](O)[C@H](O)[C@H]2O)cc(OC)c1O | 66.3 | 
12 | COc1cc(/C=C/CO)ccc1O[C@@H]1O[C@H](CO)[C@@H](O)[C@H](O)[C@H]1O | 11 | 
13 | COc1cc(/C=C/CO)cc(O[C@@H]2O[C@H](CO)[C@@H](O)[C@H](O)[C@H]2O[C@@H]2OC[C@](O)(CO)[C@H]2O)c1OC | 31.3 | 
14 | C[C@H]1O[C@H](O[C@H]2[C@H](O)[C@@H](O)[C@@H](O[C@H]3[C@H](O)[C@@H](O)C(O)O[C@@H]3CO)O[C@@H]2CO)[C@H](O)[C@@H](O)[C@@H]1N[C@H]1C=C(CO)[C@@H](O)[C@H](O)[C@H]1O (stereo not given in full) |  | 89.5
15 | COc1cc([C@H]2OC[C@H]3[C@@H]2CO[C@@H]3c2ccc(O)c(OC)c2)ccc1O | 51.3 | 

— ChEMBL document CHEMBL4425190, “Rat intestinal sucrase inhibited by minor constituents from the leaves and twigs of Archidendron clypearia (Jack.) Nielsen” (Bioorg Med Chem Lett, 2016)
